Structures are written as SMILES. Entries after “also recorded” stand apart in the source; their conditions may differ.

In test [1] the test system is H. parasitica isolates Cala2 and Waco9. Nature of the test: Conidiophore counting on H. parasitica-inoculated Arabidopsis seedlings infiltrated with homoserine. Type of test: in vivo, Hyaloperonospora parasitica. The protocol:
The inoculated seedlings were infiltrated with dH2O, D-homoserine (5 mM) or L-homoserine (5 mM) at 3 days post inoculation with the pathogen.
(§1) To test if the effect is specific for homoserine the stereo-isomer D-homoserine was tested. Whole seedlings were infiltrated with water, 5 mM D-homoserine and 5 mM L-homoserine. […] The infiltration was applied to two Arabidopsis accessions, Ler eds1-2 and Ws eds1-1, susceptible to Cala2 and Waco9, respectively. Conidiophore formation was determined as an indicator for H. parsitica susceptibility. Conidiophores were counted 5 days post inoculation with H. parasitica and 2 days post infiltration with water, D-homoserine or L-homoserine. (FIG. 6). […] This was further confirmed by studying pathogen growth in planta by trypan blue staining of Arabidopsis seedlings. Plants were inoculated with isolate Cala2. Two days later the plants were treated by infiltration with water, 5 mM D-homoserine, and 5 mM L-homoserine.

The subject of test [2] is H. parasitica isolate Cala2. The experiment in a line: Microscopy of trypan blue stained seedlings: growth and development of H. parasitica in planta. Format: in vivo, Hyaloperonospora parasitica. To be noted: for haustorial development: 5 mM infiltration, microscopy, 40x magnification, FIG. 7b. The protocol: as §1
Again it is shown that increased levels of homoserine in planta lead to pathogen resistance.

Where [3] appears, read: 5 mM infiltration of whole Arabidopsis seedlings.

In the case of `N[C@H](CCO)C(=O)O` [D-homoserine, reference compound], in test [1] (setting [3]), the pathogen growth entry was “did not show a large reduction in pathogen growth” and the “resistance / susceptibility to H. parasitica” value is reported as “susceptible to H. parasitica”. Further, the haustorial development result in test [2] is given as “not”.

For the compound `N[C@@H](CCO)C(=O)O` [L-homoserine], the “resistance / susceptibility to H. parasitica” value in test [1] (setting [3]) is recorded as “resistant; also recorded: resulted in resistance to H. parasitica”. For the same compound, the “conidiophore formation (number of conidiophores per seedling)” value in test [1] (5 mM infiltration of whole seedlings, counted 5 days post inoculation, 2 days post infiltration, Ler eds1-2 (Cala2) and Ws eds1-1 (Waco9), FIG. 6) is given as “complete absence of conidiophore formation; also recorded: reduction of conidiophore formation”. In addition, the “pathogen growth in planta (trypan blue staining)” value in test [2] (5 mM infiltration two days after inoculation with Cala2, scored 5 days post inoculation, FIG. 7) is “strongly reduced pathogen growth”. The “conidiophore formation (microscopy)” value in test [2] (5 mM infiltration two days after inoculation with Cala2, scored 5 days post inoculation, Ler eds1-2 seedlings, trypan blue, FIG. 7) is on record as “No conidiophore formation was detected”. Besides, the haustorial development result in test [2] is “affected; also recorded: disturbed”.
